Laboratory results as given in ChEMBL document CHEMBL5543125, “Discovery of 2,3-Dihydro[1,4]dioxino[2,3-g]benzofuran Derivatives as Protease Activated Receptor 4 (PAR4) Antagonists with Potent Antiplatelet Aggregation Activity and Low Bleeding Tendency” (J Med Chem, 2024).
One block for each molecule: values may come before it. Calls of active or inactive are those of the source. The calls are words filed in the database; no cut-off is given here.

Experiments:
[1] = Metabolic stability in human liver microsomes assessed as half life at 1 uM preincubated for 1 hr followed by NADPH addition and measured upto 60 mins by LC-MS/MS analysis; assay type: ADME, Microsome; conditions: time < 120 min
[2] = Oral bioavailability in Sprague-Dawley rat at 50 mg/kg; assay type: ADME, organism-based; conditions: in vivo
Platelet [3] = assay: Inhibition of platelet aggregation in human platelet rich plasma preincubated for 5 mins followed by aggregation inducer addition and measured after 5 mins by light transmission aggregometry; assay type: functional, cell-based
Platelet [4] = assay: Inhibition of platelet aggregation in human platelet rich plasma at 20 uM preincubated for 5 mins followed by aggregation inducer addition and measured after 5 mins by light transmission aggregometry relative to control; assay type: functional; conditions: 10 min
[5] = biological target: T1, Proteinase-activated receptor 4 (Homo sapiens) (UniProt Q96RI0); assay: Antagonist activity at PAR4 in human filtered plasma assessed as inhibition of PAR4-activated peptide AYPGPK-NH2 induced platelet aggregation at 100 nM preincubated for 5 mins followed by aggregation inducer addition and measured after 5 mins by light transmission aggregometry relative to control; assay type: functional, cell-free; conditions: filed as antagonist, time 10.0 min
T1 sequence (whole entry): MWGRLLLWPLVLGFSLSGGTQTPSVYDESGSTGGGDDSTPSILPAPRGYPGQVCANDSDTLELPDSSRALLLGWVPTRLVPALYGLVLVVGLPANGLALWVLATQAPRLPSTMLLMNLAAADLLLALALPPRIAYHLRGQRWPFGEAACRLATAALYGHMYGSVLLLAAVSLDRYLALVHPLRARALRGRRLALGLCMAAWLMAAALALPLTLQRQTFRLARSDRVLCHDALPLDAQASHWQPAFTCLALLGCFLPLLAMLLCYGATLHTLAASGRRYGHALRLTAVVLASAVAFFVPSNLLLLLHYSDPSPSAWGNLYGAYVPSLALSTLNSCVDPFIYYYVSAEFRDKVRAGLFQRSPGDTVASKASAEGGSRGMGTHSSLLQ

[6] = Tmax in ICR mouse at 12 mg/kg, po measured upto 24 hrs by LC-MS/MS analysis; assay type: ADME, organism-based; conditions: in vivo
[7] = Terminal elimination half life in ICR mouse at 12 mg/kg, po measured upto 24 hrs by LC-MS/MS analysis; assay type: ADME, organism-based; conditions: in vivo, read-out: beta t1/2 (converted)
Platelet [8] = assay: Antagonist activity at P2Y1/P2Y12 in ICR mouse plasma assessed as inhibition of ADP induced platelet aggregation upto 1 uM preincubated for 5 mins followed by aggregation inducer addition and measured after 5 mins by light transmission aggregometry; assay type: cell-free; conditions: time 10.0 min
[9] = biological target: Voltage-gated inwardly rectifying potassium channel KCNH2 (Homo sapiens, UniProt Q12809); assay: Inhibition of hERG expressed in HEK293 cells by whole cell patch clamp assay; assay type: toxicity, cell-based
Voltage-gated inwardly rectifying potassium channel KCNH2, sequence (Q12809 whole entry): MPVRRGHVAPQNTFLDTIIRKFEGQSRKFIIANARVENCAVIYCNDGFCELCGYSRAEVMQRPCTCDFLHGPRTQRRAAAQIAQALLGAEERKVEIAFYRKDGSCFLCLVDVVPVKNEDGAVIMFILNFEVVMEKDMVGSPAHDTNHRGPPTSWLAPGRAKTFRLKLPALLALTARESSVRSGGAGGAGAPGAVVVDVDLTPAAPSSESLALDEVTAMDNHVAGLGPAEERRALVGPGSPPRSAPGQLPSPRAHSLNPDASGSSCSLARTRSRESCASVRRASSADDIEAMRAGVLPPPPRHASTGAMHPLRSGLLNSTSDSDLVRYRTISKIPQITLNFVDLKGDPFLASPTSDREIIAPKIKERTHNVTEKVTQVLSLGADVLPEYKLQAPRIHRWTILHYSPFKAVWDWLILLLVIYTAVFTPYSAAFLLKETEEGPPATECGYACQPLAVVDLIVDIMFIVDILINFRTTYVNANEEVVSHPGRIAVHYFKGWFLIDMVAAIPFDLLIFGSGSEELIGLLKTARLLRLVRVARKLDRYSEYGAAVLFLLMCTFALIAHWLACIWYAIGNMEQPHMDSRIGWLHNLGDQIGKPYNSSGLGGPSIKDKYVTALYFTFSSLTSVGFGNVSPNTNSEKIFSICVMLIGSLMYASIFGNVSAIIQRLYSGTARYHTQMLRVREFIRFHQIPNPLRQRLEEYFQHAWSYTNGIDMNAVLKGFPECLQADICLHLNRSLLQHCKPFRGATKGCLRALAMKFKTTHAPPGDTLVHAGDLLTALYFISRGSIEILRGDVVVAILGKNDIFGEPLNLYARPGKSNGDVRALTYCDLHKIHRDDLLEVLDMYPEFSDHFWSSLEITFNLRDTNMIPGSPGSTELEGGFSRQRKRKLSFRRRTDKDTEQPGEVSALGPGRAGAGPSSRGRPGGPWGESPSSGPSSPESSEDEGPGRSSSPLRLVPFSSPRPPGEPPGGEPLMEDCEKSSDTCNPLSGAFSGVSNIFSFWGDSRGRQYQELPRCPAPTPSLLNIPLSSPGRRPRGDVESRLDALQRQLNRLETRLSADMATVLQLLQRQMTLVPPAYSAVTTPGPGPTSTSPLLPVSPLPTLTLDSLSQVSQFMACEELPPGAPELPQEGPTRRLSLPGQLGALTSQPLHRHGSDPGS

[10] = Clearance in ICR mouse at 2 mg/kg, iv measured upto 24 hrs by LC-MS/MS analysis; assay type: ADME, organism-based; conditions: in vivo
[11] = Oral bioavailability in ICR mouse at 12 mg/kg measured upto 24 hrs by LC-MS/MS analysis; assay type: ADME, organism-based; conditions: in vivo
[12] = Terminal elimination half life in ICR mouse at 2 mg/kg, iv measured upto 24 hrs by LC-MS/MS analysis; assay type: ADME, organism-based; conditions: in vivo, read-out: beta t1/2 (converted)
[13] = AUC (0 to t) in ICR mouse at 12 mg/kg, po measured upto 24 hrs by LC-MS/MS analysis; assay type: ADME, organism-based; conditions: in vivo
Plasma [14] = assay: Ex vivo antiplatelet aggregation activity in po dosed ICR mouse […] assessed as inhibition of PAR4-activated peptide AYPGFK-NH2 induced platelet aggregation measured after 2 hrs by light transmission aggregometry; assay type: functional, organism-based; conditions: dose 1-12 mg/kg
Plasma [15] = assay: Ex vivo antiplatelet aggregation activity in ICR mouse […] assessed as inhibition of PAR4-activated peptide AYPGFK-NH2 induced platelet aggregation at 6 to 12 mg/kg, po measured after 2 hrs by light transmission aggregometry relative to control; assay type: functional; conditions: dose 6-12 mg/kg
[16] = Toxicity in C57BL/6J mouse assessed as prolongation of bleeding time at 3 to 12 mg/kg, po administered via oral gavage and measured after 2 hrs; assay type: organism-based; conditions: in vivo, dose 3-12 mg/kg
Plasma [17] = assay: Ex vivo antiplatelet aggregation activity in po dosed ICR mouse […] assessed as inhibition of ADP induced platelet aggregation measured after 2 hrs by light transmission aggregometry; assay type: functional, organism-based; conditions: dose 1-12 mg/kg
Plasma [18] = assay: Anticoagulation activity in ICR mouse platelet poor plasma assessed as elongation of prothrombin time upto 20 uM incubated for 3 mins; assay type: functional, cell-free
Plasma [19] = assay: Anticoagulation activity in ICR mouse platelet poor plasma assessed as elongation of aPTT upto 20 uM incubated for 3 mins; assay type: functional, cell-free
[20] = Cmax in ICR mouse at 12 mg/kg, po measured upto 24 hrs by LC-MS/MS analysis; assay type: ADME, organism-based; conditions: in vivo
[21] = biological target: T2, Platelet glycoprotein VI (Mus musculus) (UniProt P0C191); assay: Antagonist activity at GPVI in ICR mouse plasma assessed as inhibition of collagen induced platelet aggregation upto 1 uM preincubated for 5 mins followed by aggregation inducer addition and measured after 5 mins by light transmission aggregometry; assay type: cell-free; conditions: time 10.0 min
T2 sequence (whole entry): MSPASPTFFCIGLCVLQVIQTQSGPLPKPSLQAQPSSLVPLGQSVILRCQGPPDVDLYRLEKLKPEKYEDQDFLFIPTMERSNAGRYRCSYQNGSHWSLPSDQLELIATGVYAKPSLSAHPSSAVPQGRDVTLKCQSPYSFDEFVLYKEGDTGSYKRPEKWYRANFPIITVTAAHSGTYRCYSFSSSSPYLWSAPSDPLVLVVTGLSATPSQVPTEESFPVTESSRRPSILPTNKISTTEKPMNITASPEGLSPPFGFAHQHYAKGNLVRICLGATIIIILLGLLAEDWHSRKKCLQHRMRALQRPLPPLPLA

Platelet [22] = assay: Antiplatelet aggregation activity in ICR mouse plasma assessed as inhibition of thrombin induced platelet aggregation upto 1 uM preincubated for 5 mins followed by aggregation inducer addition and measured after 5 mins by light transmission aggregometry; assay type: functional, cell-based; conditions: time 10.0 min
Plasma [23] = assay: Ex vivo antiplatelet aggregation activity in ICR mouse […] assessed as inhibition of ADP induced platelet aggregation at 6 to 12 mg/kg, po measured after 2 hrs by light transmission aggregometry relative to control; assay type: functional; conditions: dose 6-12 mg/kg
[24] = AUC (0 to t) in ICR mouse at 2 mg/kg, iv measured upto 24 hrs by LC-MS/MS analysis; assay type: ADME, organism-based; conditions: in vivo
[25] = biological target: T3, Platelet glycoprotein VI (Homo sapiens) (UniProt Q9HCN6); assay: Antagonist activity at GPVI in human platelet rich plasma assessed as inhibition of collagen induced platelet aggregation at >=4 uM preincubated for 5 mins followed by aggregation inducer addition and measured after 5 mins by light transmission aggregometry; assay type: cell-free; conditions: filed as antagonist, time 10.0 min
T3 sequence (whole entry): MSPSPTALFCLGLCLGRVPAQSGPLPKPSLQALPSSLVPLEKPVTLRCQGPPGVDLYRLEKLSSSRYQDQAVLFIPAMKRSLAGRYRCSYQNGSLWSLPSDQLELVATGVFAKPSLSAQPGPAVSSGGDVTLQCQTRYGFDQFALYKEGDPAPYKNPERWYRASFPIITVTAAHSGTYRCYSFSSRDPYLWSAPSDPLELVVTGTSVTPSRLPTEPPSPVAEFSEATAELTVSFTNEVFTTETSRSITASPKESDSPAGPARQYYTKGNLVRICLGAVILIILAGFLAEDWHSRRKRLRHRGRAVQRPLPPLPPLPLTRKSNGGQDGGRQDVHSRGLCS

[26] = biological target: T4, Thromboxane A2 receptor (Mus musculus) (UniProt P30987); assay: Antagonist activity at thromboxane A2 receptor in ICR mouse plasma assessed as inhibition of U46619 induced platelet aggregation upto 1 uM preincubated for 5 mins followed by aggregation inducer addition and measured after 5 mins by light transmission aggregometry; assay type: functional, cell-free; conditions: time 10.0 min
T4 sequence (whole entry): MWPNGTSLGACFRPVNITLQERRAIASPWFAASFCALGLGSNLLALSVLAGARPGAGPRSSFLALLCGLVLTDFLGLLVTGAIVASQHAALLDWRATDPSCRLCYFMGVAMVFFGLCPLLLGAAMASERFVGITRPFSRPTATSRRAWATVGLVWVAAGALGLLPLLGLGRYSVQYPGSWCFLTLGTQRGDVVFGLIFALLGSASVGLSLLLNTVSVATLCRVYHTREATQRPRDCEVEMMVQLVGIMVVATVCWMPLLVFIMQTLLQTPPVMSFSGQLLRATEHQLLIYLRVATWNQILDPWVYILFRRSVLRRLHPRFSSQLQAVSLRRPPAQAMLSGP

[27] = biological target: T5, Proteinase-activated receptor 4 (Mus musculus) (UniProt O88634); assay: Antagonist activity at PAR4 in ICR mouse plasma assessed as inhibition of PAR4-activated peptide AYPGPK-NH2 induced platelet aggregation at 200 to 1000 nM preincubated for 5 mins followed by aggregation inducer addition and measured after 5 mins by light transmission aggregometry; assay type: cell-free; conditions: filed as antagonist, dose 200-1000 nM, time 10.0 min
T5 sequence (whole entry): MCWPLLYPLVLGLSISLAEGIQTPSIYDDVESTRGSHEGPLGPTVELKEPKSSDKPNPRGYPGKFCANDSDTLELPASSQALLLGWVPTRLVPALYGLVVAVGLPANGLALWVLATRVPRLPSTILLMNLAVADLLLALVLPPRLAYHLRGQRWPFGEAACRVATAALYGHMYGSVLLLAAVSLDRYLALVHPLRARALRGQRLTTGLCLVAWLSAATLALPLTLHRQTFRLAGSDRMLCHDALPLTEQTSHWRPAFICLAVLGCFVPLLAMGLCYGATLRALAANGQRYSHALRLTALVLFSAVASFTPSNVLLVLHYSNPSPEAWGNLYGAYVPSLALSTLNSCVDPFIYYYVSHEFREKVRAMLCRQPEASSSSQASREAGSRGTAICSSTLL

half-life at 1 µM [1]: 0.572 h
bioavailability [2]: 4.9%
IC50 (Platelet [3]): 9.1 nM
Structure (SMILES): COc1nn2cc(-c3cc4c(F)cc5c(c4o3)OCCO5)nc2s1
inhibition at 20 µM (Platelet [4]): 74.8%

Activity [5]: Active
Structure (SMILES): CCOC(=O)N[C@@H]1CC[C@@H]2[C@@H](C1)C[C@H]1C(=O)O[C@H](C)[C@H]1[C@H]2/C=C/c1ccc(-c2cccc(F)c2)cn1

Tmax [6]: 1.67 h
half-life [7]: 7.32 h
half-life at 1 µM [1]: 1.63 h
Activity (Platelet [8]): inactive
IC50 (Platelet [3]): 26.1 nM
clearance [10]: 23.8 mL/min/kg
bioavailability [11]: 45.1%
half-life [12]: 11.3 h
AUC(0-t) at 24 h [13]: 3460 ng·h/mL
Cmax [20]: 325 ng/mL
Activity [21]: inactive
AUC(0-t) at 24 h [24]: 1250 ng·h/mL
Activity [25]: Active
Activity [26]: inactive
Activity [27]: Active
Structure (SMILES): COc1nn2cc(-c3cc4ccc5c(c4o3)OC(COc3ccc(F)cc3)CO5)nc2s1 (stereo not given)
IC50 [9]: 21600 nM
Activity (Plasma [14]): Dose-Dependent Effect
inhibition (INH) (Plasma [15]): >90%
Activity [16]: Non-Toxic
Activity (Plasma [17]): Dose-Dependent Effect
Activity (Plasma [18]): inactive
Activity (Plasma [19]): inactive
Activity (Platelet [22]): inactive
inhibition at 20 µM (Platelet [4]): 85.9%
inhibition (INH) (Plasma [23]): >90%
